Source: patent US8747910B2, “Prediction of response to platinum-based therapy” (Atlas Antibodies AB, priority 2009, dated 2014)

Assays:
A2780 cells = experiment: Effect of RBM3 knockdown on cisplatin resistance (WST-1 viability); format: cell-based, human; settings: cisplatin sensitive cells with anti-RBM3 siRNA 50 nM vs non-exposed cells; cisplatin 1-100 μM; FIG. 24
Procedure: The human ovarian cancer cell line A2780 and the cisplatin-resistant variant A2780 Cp70 were maintained in RPMI-1640 supplemented with glutamine, 10% fetal bovine serum and 1% penicillin/streptomycin in a humidified incubator of 5% CO2 at 37° C. Cisplatin (Sigma) was dissolved in 0.9% NaCl to a stock solution of 1 mg/ml and added to cell cultures to the final concentration (1-100 μM).
Transfection with siRNA against RBM3 (Applied Biosystems, Carlsbad, Calif.) or control siRNA (Applied Biosystems) was performed with Lipofectamine 2000 (Invitrogen, Carlsbad, Calif.) with a final concentration of 50 nM siRNA.
The effect of cisplatin on cell viability was determined by the WST-1 assay as described in Examples, section 12.

[1] = system: epithelial ovarian cancer; experiment: Gene expression analysis of ovarian cancer, recurrence free survival; format: in vivo, human; settings: patients with tumors of high vs low RBM3 expression level; 210 serous samples; FIG. 19
Description: Data was collected from a previously performed microarray study, based on a patient cohort of 285 patients diagnosed with epithelial ovarian cancer between 1992 and 2006. Institutional Review Board approval for patient consent had been obtained for all patients.
The median age of patients was 59 years (ranging from 18-79 years). The inventors decided to exclude data from 18 patients who received neoadjuvant therapy, as the inventors realized that this treatment could possibly influence RBM3 mRNA levels, and might thus lead to biased results. Further, data from 40 patients who didn't receive platinum based therapy were removed from the data set. Of these 227 samples, 210 came from patients with serous cancer, 16 with endometroid and 1 with adenocarcinoma. For statistical analysis only serous samples were considered. Pathology evaluation data existed for all patients, and recurrence free survival was evaluated for RBM3 high as well as RBM3 low mRNA content.

[2] = system: A2780 and A2780-Cp70 cells; experiment: WST-1 cell viability assay after cisplatin treatment; format: cell-based, human; settings: A2780-cp70 compared to parental A2780; cisplatin 0-100 μM, 48 h; FIG. 23
Procedure: The effect of cisplatin on cell viability was determined by the WST-1 assay (Roche Applied Science) according to the manufacturer's recommendation. A2780 and A2780-Cp70 cells were seeded in 96-well plates at the density of 2500 cells/well in 100 μl appropriate medium a day before addition of cisplatin. The cells were treated with cisplatin (0-100 μM) for 48 h. Samples were made in triplicate. Ten microliters WST-1 solution was added per well and cells were incubated at 37° C. for 4 hr. The absorbance of each well was measured using a scanning multiwell spectrophotometer, ELISA reader at the wavelength of 450 nm and reference wavelength of 690 nm.

Question: Which results are given for N.N.[Cl][Pt][Cl] [cisplatin]?
Answer: viability after cisplatin treatment at low RBM3 protein expression (A2780 cells): increased viability; recurrence free survival [1]: significantly better recurrence free survival; viability after cisplatin treatment [2]: increased viability
